Where two headings read alike, the source gives them in different places.
Assays:
CLK2 = target: T1, CLK2 (Homo sapiens, UniProt P49760); assay: CLK2 kinase activity assay (Z-lyte, Ser/Thr 6 peptide); assay type: biochemical; settings: recombinant CLK2 kinase, ATP 60 μM; read-out: EC50
T1 construct: purchased Thermo Fisher (Life Technologies), Z'-LYTE Kinase Assay Kits
Protocol: All reactions were performed in duplicate.

BT-549 = assay: CellTiter-Glo Viability Assay, breast cancer; assay type: cell-based; settings: Homo sapiens, 96 h; BT-549, breast cancer, four days; read-out: EC50
Protocol: (§1) Fifty-one human cancer cell lines (breast cancer (8 cell lines), colorectal cancer (6 cell lines), haematopoietic & lymphoid tumors (13 cell lines), liver cancer (3 cell lines), lung cancer (4 cell lines), ovarian cancer (4 cell lines), pancreatic cancer (8 cell lines), and prostate cancer (5 cell lines)) were tested to determine the effects of representative compounds of Formulas (I)-(XII) on cellular proliferation, as evaluated using the CellTiter-Glo® Viability Assay.
(§2) For the Cell Viability Assays, cells were plated at 300-3,000 cells/well in 384-well plates in their respective media containing 1% Penicillin-Streptomycin and incubated for four days at 37° C. and 5% CO2. Twenty-eight replicates of DMSO-treated cells served as controls and cells treated with compound were performed in duplicate.
(§3) After incubation, 10 μL of CellTiter-Glo® (Promega) was added to each well allowed to incubate for approximately 12 minutes. This reagent results in cell lysis and generation of a luminescent signal proportional to the amount of ATP present. The amount of ATP is directly proportional to the number of metabolically active, viable cells present in culture. The CellTiter-Glo® Assay generates a luminescent signal, produced by the luciferase reaction (Promega.com).
(§4) After incubation, the luminescence signal was read using an EnVision™ Multilabel Plate Reader (Perkin Elmer). Dose-response curves were generated and EC50 concentration values were calculated using Dotmatics' Studies Software (Bishops Stortford, UK).

CAMA1 = assay: CellTiter-Glo Viability Assay, breast cancer; assay type: cell-based; settings: Homo sapiens, CAMA-1, 96 h; CAMA1, breast cancer, four days; read-out: EC50
Protocol: as §1, §2, §3, §4

DU4475 = assay: CellTiter-Glo Viability Assay, breast cancer; assay type: cell-based; settings: Homo sapiens, DU-4475, 96 h; DU4475, breast cancer, four days; read-out: EC50
Protocol: as §1, §2, §3, §4

HCC1599 = assay: CellTiter-Glo Viability Assay, breast cancer; assay type: cell-based; settings: Homo sapiens, 96 h; HCC1599, breast cancer, four days; read-out: EC50
Protocol: as §1, §2, §3, §4

MCF7 = assay: CellTiter-Glo Viability Assay, breast cancer; assay type: cell-based; settings: Homo sapiens, 96 h; MCF7, breast cancer, four days; read-out: EC50
Protocol: as §1, §2, §3, §4

T47D = assay: CellTiter-Glo Viability Assay, breast cancer; assay type: cell-based; settings: Homo sapiens, 96 h, breast cancer, four days, read-out: EC50
Protocol: as §1, §2, §3, §4

ZR-75-1 = assay: CellTiter-Glo Viability Assay, breast cancer; assay type: cell-based; settings: Homo sapiens, 96 h; ZR-75-1, breast cancer, four days; read-out: EC50
Protocol: as §1, §2, §3, §4

all 50 cell lines = assay: CellTiter-Glo Viability Assay, average across all cell lines; assay type: cell-based; settings: Homo sapiens; across all 50 cell lines; read-out: average EC50 for inhibition of cancer cell proliferation
Protocol: as §1, §2, §3, §4

[1] = tested on: colorectal cancer (6 cell lines); assay: CellTiter-Glo Viability Assay, colorectal cancer; assay type: cell-based; settings: Homo sapiens, inhibition of cancer cell proliferation
Protocol: as §1, §2, §3, §4

[2] = tested on: haematopoietic & lymphoid tumors (13 cell lines); assay: CellTiter-Glo Viability Assay, haematopoietic & lymphoid tumors; assay type: cell-based; settings: Homo sapiens, inhibition of cancer cell proliferation
Protocol: as §1, §2, §3, §4

[3] = tested on: liver cancer (3 cell lines); assay: CellTiter-Glo Viability Assay, liver cancer; assay type: cell-based; settings: Homo sapiens, inhibition of cancer cell proliferation
Protocol: as §1, §2, §3, §4

[4] = tested on: lung cancer (4 cell lines); assay: CellTiter-Glo Viability Assay, lung cancer; assay type: cell-based; settings: Homo sapiens, inhibition of cancer cell proliferation
Protocol: as §1, §2, §3, §4

[5] = tested on: ovarian cancer (4 cell lines); assay: CellTiter-Glo Viability Assay, ovarian cancer; assay type: cell-based; settings: Homo sapiens, inhibition of cancer cell proliferation
Protocol: as §1, §2, §3, §4

[6] = tested on: pancreatic cancer (8 cell lines); assay: CellTiter-Glo Viability Assay, pancreatic cancer; assay type: cell-based; settings: Homo sapiens, inhibition of cancer cell proliferation
Protocol: as §1, §2, §3, §4

[7] = tested on: prostate cancer (5 cell lines); assay: CellTiter-Glo Viability Assay, prostate cancer; assay type: cell-based; settings: Homo sapiens
Protocol: as §1, §2, §3, §4

CLK3 = CLK3 (Homo sapiens, UniProt P49761); assay: CLK3 kinase activity assay (Z-lyte, Ser/Thr 18 peptide)
Chain of CLK3 (P49761 whole entry): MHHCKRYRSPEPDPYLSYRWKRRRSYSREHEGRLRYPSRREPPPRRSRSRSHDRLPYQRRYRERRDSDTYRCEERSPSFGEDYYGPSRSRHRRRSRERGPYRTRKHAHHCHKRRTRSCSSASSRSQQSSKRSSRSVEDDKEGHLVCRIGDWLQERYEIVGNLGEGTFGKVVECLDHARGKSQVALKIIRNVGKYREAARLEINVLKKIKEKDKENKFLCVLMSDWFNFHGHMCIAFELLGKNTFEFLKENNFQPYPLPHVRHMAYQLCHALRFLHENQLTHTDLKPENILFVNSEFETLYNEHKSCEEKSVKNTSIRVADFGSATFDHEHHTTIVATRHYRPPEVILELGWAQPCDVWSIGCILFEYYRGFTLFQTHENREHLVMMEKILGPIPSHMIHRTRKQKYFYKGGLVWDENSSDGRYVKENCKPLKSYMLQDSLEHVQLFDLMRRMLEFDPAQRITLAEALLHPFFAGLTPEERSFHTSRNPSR

T1 sequence (P49760 whole entry): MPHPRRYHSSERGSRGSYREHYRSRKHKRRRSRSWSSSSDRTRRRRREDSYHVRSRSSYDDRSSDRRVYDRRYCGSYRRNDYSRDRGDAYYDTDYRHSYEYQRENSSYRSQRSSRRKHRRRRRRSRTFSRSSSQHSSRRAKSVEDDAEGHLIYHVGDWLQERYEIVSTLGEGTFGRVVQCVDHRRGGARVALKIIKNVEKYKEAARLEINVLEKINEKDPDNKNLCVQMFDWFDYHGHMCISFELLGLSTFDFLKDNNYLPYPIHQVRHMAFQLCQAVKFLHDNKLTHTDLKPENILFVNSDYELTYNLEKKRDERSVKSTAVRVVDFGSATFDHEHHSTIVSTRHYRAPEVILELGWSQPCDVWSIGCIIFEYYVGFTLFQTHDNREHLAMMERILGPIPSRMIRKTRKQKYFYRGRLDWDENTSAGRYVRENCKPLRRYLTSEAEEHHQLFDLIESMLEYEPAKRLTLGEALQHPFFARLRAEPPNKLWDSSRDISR

**Q.** `CN1CCN(c2cc(C(=O)Nc3cc4cc(-c5cn(C)nn5)ccc4cn3)ccn2)CC1` [Compound 14] was tested. Which EC50 (CLK2) did it give?
**A.** 2 nM

**Q.** What about the EC50 (BT-549) of the same compound?
**A.** 339 nM

**Q.** What about the EC50 (CAMA1) of the same compound?
**A.** 329 nM

**Q.** And the EC50 (DU4475)?
**A.** 137 nM

**Q.** What about the EC50 (HCC1599) of the same compound?
**A.** 165 nM

**Q.** And the EC50 (MCF7)?
**A.** 725 nM

**Q.** And the EC50 (T47D)?
**A.** 503 nM

**Q.** What about the EC50 (ZR-75-1) of the same compound?
**A.** 410 nM

**Q.** And the EC50 (all 50 cell lines)?
**A.** 289 nM

**Q.** What about the EC50 ([1]; HCT-116, HCT116 cell line, read-out: Colorectal cancer, EC50 (μM) HCT116) of the same compound?
**A.** 0.14 µM

**Q.** And the EC50 ([1]; HT-29, HT29 cell line, read-out: Colorectal cancer, EC50 (μM) HT29)?
**A.** 0.295 µM

**Q.** What about the EC50 ([1]; SW-620, SW620 cell line, read-out: Colorectal cancer, EC50 (μM) SW620) of the same compound?
**A.** 0.113 µM

**Q.** What about the EC50 ([1]; DLD-1 cell line, read-out: Colorectal cancer, EC50 (μM) DLD-1) of the same compound?
**A.** 0.161 µM

**Q.** And the EC50 ([1]; SW48 cell line, read-out: Colorectal cancer, EC50 (μM) SW48)?
**A.** 0.096 µM

**Q.** What about the EC50 ([1]; SW480 cell line, read-out: Colorectal cancer, EC50 (μM) SW480) of the same compound?
**A.** 0.191 µM

**Q.** And the EC50 ([2]; DND41, DND-41 cell line, read-out: Haematopoietic & Lymphoid tumors, EC50 (μM) DND-41)?
**A.** 0.216 µM

**Q.** What about the EC50 ([2]; MV4-11, MV-4-11 cell line, read-out: Haematopoietic & Lymphoid tumors, EC50 (μM) MV-4-11) of the same compound?
**A.** 0.101 µM

**Q.** What about the EC50 ([2]; Rec1, REC-1 cell line, read-out: Haematopoietic & Lymphoid tumors, EC50 (μM) REC-1) of the same compound?
**A.** 0.08 µM

**Q.** And the EC50 ([2]; SU-DHL-4, SUDHL4 cell line, read-out: Haematopoietic & Lymphoid tumors, EC50 (μM) SUDHL4)?
**A.** 0.317 µM

**Q.** And the EC50 ([2]; HL-60 cell line, read-out: Haematopoietic & Lymphoid tumors, EC50 (μM) HL-60)?
**A.** 0.719 µM

**Q.** And the EC50 ([2]; JM1 cell line, read-out: Haematopoietic & Lymphoid tumors, EC50 (μM) JM1)?
**A.** 0.093 µM

**Q.** What about the EC50 ([2]; JURKAT, Clone E6-1 cell line, read-out: Haematopoietic & Lymphoid tumors, EC50 (μM) JURKAT, Clone E6-1) of the same compound?
**A.** 0.511 µM

**Q.** What about the EC50 ([2]; JeKo-1 cell line, read-out: Haematopoietic & Lymphoid tumors, EC50 (μM) JeKo-1) of the same compound?
**A.** 0.073 µM

**Q.** And the EC50 ([2]; KASUMI-1 cell line, read-out: Haematopoietic & Lymphoid tumors, EC50 (μM) KASUMI-1)?
**A.** 0.174 µM

**Q.** What about the EC50 ([2]; Loucy cell line, read-out: Haematopoietic & Lymphoid tumors, EC50 (μM) Loucy) of the same compound?
**A.** 0.192 µM

**Q.** What about the EC50 ([2]; MOLT-4 cell line, read-out: Haematopoietic & Lymphoid tumors, EC50 (μM) MOLT-4) of the same compound?
**A.** 0.327 µM

**Q.** What about the EC50 ([2]; TF-1 cell line, read-out: Haematopoietic & Lymphoid tumors, EC50 (μM) TF-1) of the same compound?
**A.** 0.367 µM

**Q.** And the EC50 ([2]; TOLEDO cell line, read-out: Haematopoietic & Lymphoid tumors, EC50 (μM) TOLEDO)?
**A.** 0.104 µM

**Q.** And the EC50 ([3]; SNU-398, SNU398 cell line, read-out: Liver cancer, EC50 SNU398)?
**A.** 69 nM

**Q.** What about the EC50 ([3]; HEPG2 cell line, read-out: Liver cancer, EC50 HEPG2) of the same compound?
**A.** 431 nM

**Q.** What about the EC50 ([3]; PLC/PRF/5 cell line, read-out: Liver cancer, EC50 PLC/PRF/5) of the same compound?
**A.** 541 nM

**Q.** What about the EC50 ([4]; A-427, A427 cell line, read-out: Lung cancer, EC50 (μM) A427) of the same compound?
**A.** 0.303 µM

**Q.** What about the EC50 ([4]; HCC78, HCC-78 cell line, read-out: Lung cancer, EC50 (μM) HCC-78) of the same compound?
**A.** 0.467 µM

**Q.** What about the EC50 ([4]; NCI-H460 cell line, read-out: Lung cancer, EC50 (μM) NCI-H460) of the same compound?
**A.** 0.268 µM

**Q.** What about the EC50 ([4]; NCI-H522 cell line, read-out: Lung cancer, EC50 (μM) NCI-H522) of the same compound?
**A.** 0.142 µM

**Q.** And the EC50 ([5]; PA-1, PA1 cell line, read-out: Ovarian cancer, EC50 (μM) PA1)?
**A.** 0.186 µM

**Q.** What about the EC50 ([5]; TOV112D, TOV-112D cell line, read-out: Ovarian cancer, EC50 (μM) TOV-112D) of the same compound?
**A.** 0.171 µM

**Q.** What about the EC50 ([5]; OV-90 cell line, read-out: Ovarian cancer, EC50 (μM) OV-90) of the same compound?
**A.** 0.464 µM

**Q.** What about the EC50 ([5]; OVCAR-3 cell line, read-out: Ovarian cancer, EC50 (μM) OVCAR-3) of the same compound?
**A.** 0.116 µM

**Q.** And the EC50 ([6]; BXPC-3, BxPC3 cell line, read-out: Pancreatic cancer, EC50 BxPC3)?
**A.** 484 nM

**Q.** What about the EC50 ([6]; CAPAN-1, Capan1 cell line, read-out: Pancreatic cancer, EC50 Capan1) of the same compound?
**A.** 225 nM

**Q.** And the EC50 ([6]; Capan-2, Capan2 cell line, read-out: Pancreatic cancer, EC50 Capan2)?
**A.** 464 nM

**Q.** What about the EC50 ([6]; MIA PaCa-2 cell line, read-out: Pancreatic cancer, EC50 MIA PaCa-2) of the same compound?
**A.** 134 nM

**Q.** And the EC50 ([6]; PANC 05.04 cell line, read-out: Pancreatic cancer, EC50 PANC 05.04)?
**A.** 323 nM

**Q.** And the EC50 ([6]; PANC-1 cell line, read-out: Pancreatic cancer, EC50 PANC-1)?
**A.** 429 nM

**Q.** What about the EC50 ([6]; UPAFII cell line, read-out: Pancreatic cancer, EC50 UPAFII) of the same compound?
**A.** 157 nM

**Q.** And the EC50 ([7]; DU-145, read-out: Prostate cancer EC50 Du-145)?
**A.** 325 nM

**Q.** What about the EC50 ([7]; PC-3, PC3 cell line, inhibition of cancer cell proliferation, read-out: Prostate cancer EC50 PC3) of the same compound?
**A.** 240 nM

**Q.** And the EC50 ([7]; 22Rv1 cell line, inhibition of cancer cell proliferation, read-out: Prostate cancer EC50 22Rv1)?
**A.** 263 nM

**Q.** And the EC50 ([7]; LNCap clone FGC cell line, inhibition of cancer cell proliferation, read-out: Prostate cancer EC50 LNCap clone FGC)?
**A.** 422 nM

**Q.** And the EC50 ([7]; VCaP (Sigma) cell line, inhibition of cancer cell proliferation, read-out: Prostate cancer EC50 VCaP (Sigma))?
**A.** 588 nM

**Q.** And the EC50 (CLK3)?
**A.** 24 nM

Source: patent US20220062240A1, “METHODS OF TREATING CANCER USING A CLK INHIBITOR” (BioSplice Therapeutics, Inc., priority 2018, published 2022)
